Measured values taken from publication PMC9182202 (Molecules, 2022).
≈ marks a conversion by molar mass, not a printed value.

Legend:
[1] = system: urease; experiment: Selectivity screen: urease inhibition; format: biochemical
[2] = molecular target: T1, BChE (horse serum) (Equus caballus, UniProt P81908); experiment: biochemical; format: biochemical
T1 construct: purchased Sigma-Aldrich Corporation; host or cells: horse serum
Protocol: (§1) The enzyme activity was measured in vitro via a modified spectrophotometric method developed by Ellman et al.. Acetylthiocholine iodide (ATCh) and butyrylthiocholine chloride (BTCh) were used as substrates for the AChE and BChE enzymes, respectively. Ellman reagent, i.e., 5,5-dithiobis (2-nitro) benzoic acid (DTNB), was used to produce the chromogenic indicator for the measurement of the ChE activity using a SpectraMax microplate spectrophotometer (Molecular Devices, CA, USA), as reported previously.
(§2) The IC50 values were calculated using the EZ-Fit program (Perrella Scientific Inc., Amherst, MA, USA). Lineweaver–Burk plots, Dixon plots, and their secondary replots were used to observe the effects of the compound on the values of Km and Vmax. Dixon plots, Lineweaver–Burk plots, and the secondary replots of Lineweaver–Burk plots were used to determine Ki values using initial velocities. […] The graphical analysis of the Dixon plots, Lineweaver–Burk plots, and their secondary plots was used to determine the inhibition type.

[3] = system: voltage-dependent Ca^2+ channels; experiment: Ca2+ concentration-response curves in Ca2+-free medium, rabbit jejunum; details: Ca^2+-free medium, Sarcorucinine-D 10–30 µg/mL, verapamil 0.05–0.5 µg/mL
Protocol: Another set of confirmatory experiments was also performed to be sure of any potential CCB activity. For this, the regular Tyrode’s physiological salt solution in which the tissues were originally immersed was removed. The baths were filled with a Ca^2+–free Tyrode’s solution with EDTA (0.1 mM). The tissues were left in this solution for half an hour. Later, another replacement was carried out using K^+-rich and Ca^2+-free Tyrode’s solution. The tissues were again left to stabilize for half an hour, and then, the control concentration–response curves of Ca^2+ were constructed and recorded. These control Ca^2+ concentration–response curves were duplicated after pretreatment of the tissues for one hour with different concentrations of Sarcorucinine-D. Any possible CCB effect of Sarcorucinine-D would tend to displace the Ca^2+ concentration–response curves to the right-hand side. The effects of Sarcorucinine-D were compared to those of a standard CCB, verapamil.

[4] = system: MDBK cells; experiment: MTT cytotoxicity test; details: MDBK, MTT, concentration range 0.019–1.56 μg/mL, 72 h
Protocol: (§3) The MTT (3-[4,5-dimethylthazol-2-yl]-2,5-diphenyltetrazolium bromide) test was performed using MDBK adherent cells.

[5] = MTT cytotoxicity test; details: bovine, MDBK adherent cells
Protocol: as §3

[6] = system: α-glucosidase
Protocol: (§4) To test the selectivity of the compound, Sarcorucinine-D was also tested for the inhibition of several other enzymes such as phosphodiesterase, α-glucosidase, β-glucuronidase, and urease enzymes. The assays of these enzymes are reported elsewhere.

[7] = system: phosphodiesterase
Protocol: as §4

[8] = system: β-glucuronidase; experiment: Selectivity screen: β-glucuronidase inhibition; format: biochemical
[9] = molecular target: T2, Torpedo californica AChE (TcAChE) (Tetronarce californica, UniProt P04058); experiment: biochemical; details: mean ± SEM of three experiments
T2 construct: purchased Sigma-Aldrich Corporation
Protocol: as §1, §2

T1 sequence (P81908 whole entry): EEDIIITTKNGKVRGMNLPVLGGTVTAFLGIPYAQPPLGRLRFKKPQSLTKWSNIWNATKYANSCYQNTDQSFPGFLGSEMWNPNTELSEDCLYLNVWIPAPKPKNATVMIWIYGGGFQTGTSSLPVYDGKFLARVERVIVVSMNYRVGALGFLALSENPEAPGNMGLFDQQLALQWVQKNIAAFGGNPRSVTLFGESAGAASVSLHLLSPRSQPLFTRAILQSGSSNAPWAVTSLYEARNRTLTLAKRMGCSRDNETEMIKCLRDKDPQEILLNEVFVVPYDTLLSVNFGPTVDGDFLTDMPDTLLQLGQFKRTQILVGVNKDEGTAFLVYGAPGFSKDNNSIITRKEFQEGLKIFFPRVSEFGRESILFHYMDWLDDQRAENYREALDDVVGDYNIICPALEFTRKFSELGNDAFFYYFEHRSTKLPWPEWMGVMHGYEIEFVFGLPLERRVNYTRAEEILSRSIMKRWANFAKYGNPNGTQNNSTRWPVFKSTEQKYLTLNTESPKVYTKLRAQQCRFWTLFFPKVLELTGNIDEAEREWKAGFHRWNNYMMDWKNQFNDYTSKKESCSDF
T2 sequence (P04058 22-586): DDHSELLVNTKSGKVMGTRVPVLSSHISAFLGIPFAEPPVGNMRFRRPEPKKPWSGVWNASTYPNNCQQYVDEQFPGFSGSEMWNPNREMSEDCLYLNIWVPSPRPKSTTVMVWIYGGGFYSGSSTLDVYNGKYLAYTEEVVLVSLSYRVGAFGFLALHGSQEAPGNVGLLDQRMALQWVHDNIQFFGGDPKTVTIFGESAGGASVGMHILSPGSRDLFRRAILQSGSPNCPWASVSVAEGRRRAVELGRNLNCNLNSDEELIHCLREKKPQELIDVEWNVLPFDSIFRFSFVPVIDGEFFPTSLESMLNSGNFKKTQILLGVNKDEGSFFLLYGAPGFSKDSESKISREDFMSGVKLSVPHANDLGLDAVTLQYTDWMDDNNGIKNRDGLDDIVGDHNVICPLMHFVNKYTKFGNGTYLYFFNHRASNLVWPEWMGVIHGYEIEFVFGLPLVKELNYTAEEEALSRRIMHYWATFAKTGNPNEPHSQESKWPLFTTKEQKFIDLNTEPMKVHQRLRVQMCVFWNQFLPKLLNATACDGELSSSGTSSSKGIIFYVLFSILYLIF

SMILES	Selectivity screen result, urease [1]	IC50 [2] [µM]	Ki [2] [µM]	Selectivity toward BChE over AChE ([2]; from the data of Table 1)	Effect on CaCl2 concentration–response curves [3]	Cytotoxic effect at low concentrations [4]	IC50 at 72 h [5] [µg/mL]	Selectivity screen result, α-glucosidase [6]	Selectivity screen result, phosphodiesterase [7]	Selectivity screen result, β-glucuronidase [8]	Ki ([9]; from Dixon plot, Lineweaver–Burk plot and secondary replots, read-out: Acetylcholinesterase Ki) [µM]	IC50 ([9]; read-out: Acetylcholinesterase IC50) [µM]
CC(C1CCC2C3CCC4CC(O)CCC4(C)C3CCC21C)N(C)C (stereo not shown) [Sarcorucinine-D]	selective ChE inhibitor	8.87 ± 0.56	4.66 ± 0.3	approximately 22 times	displaced the CaCl2 curves to the right	No cytotoxic effect	2.24 (≈ 6.44 µM)	selective ChE inhibitor	selective ChE inhibitor	selective ChE inhibitor	103 ± 6.67	42.9 ± 3.13
COc1ccc(CCN(C)CCCC(C#N)(c2ccc(OC)c(OC)c2)C(C)C)cc1OC (stereo not shown) [verapamil, reference compound]					displaced the CaCl2 curves to the right							
